Measurements published in patent US4614732A, “N^6 -acenaphthyl adenosines and analogs thereof” (Warner-Lambert Company, priority 1985, dated 1986).

Legend:
rat heart = experiment: Coronary Blood Flow Evaluation: isolated perfused rat heart; conditions: for activation at 1 µM / inhibition at 1 µM: 1 × 10^-6 Molar; for activation at 0.1 µM / inhibition at 0.1 µM: 1 × 10^-7 Molar; for activation at 0.01 µM / inhibition at 0.01 µM: 1 × 10^-8 Molar; for activation at 3 µM / inhibition at 3 µM: 3 × 10^-6 Molar; for activation at 0.3 µM / inhibition at 0.3 µM: 3 × 10^-7 Molar; for activation at 0.03 µM / inhibition at 0.03 µM: 3 × 10^-8 Molar
Description: The usefulness of the compounds of the present invention as agents effective to treat angina, is shown by their effectiveness in standard pharmacological test procedures, for example, in causing significant increase in coronary blood flow in rats. This test procedure is described in the following paragraphs.
Male rats (400-600 gms) are pretreated with Na heparin 2000 units and anesthetized with Na pentobarbital (50 mg/kg) administered intraperitoneally. Once anesthetized, the rat heart is rapidly excised, the ascending aorta fitted to the aortic perfusion cannula, and secured with a ligature. The coronary arteries were perfused initially at a rate of about 15 ml/min for two to three minutes, after which they are perfused at constant pressure of 70 mm Hg and temperature of 37° C. The electrocardiogram (ECG) is recorded using two platinum electrodes positioned at the base and apex of the left venticle. A second heart is excised, cannulated, and perfused by the same method outlined above. Both hearts are tested in parallel. The standard physiological salt solution (PSS) is a modified Krebs-Hanseleit bicarbonate buffer of the following composition in mM concentration: NaCl, 127; NaHCO3, 25; dextrose, 5.5; Na Pyruvate, 2.0; KCl, 4.7; MgSO4, 1.1; KH2 PO4, 1.2; CaCl2.2H2 O, 2.5; CaNa2 EDTA, 0.05.
A 30-minute stabilization period is observed before starting the test protocol.
The microprocessor control system is a servo mechanism which permits coronary perfusion pressure (CPP) and drug concentration to be maintained constant independent of changes in coronary flow. The level at which CPP and drug concentration are maintained can be changed by commands communicated through the microprocessor keyboard. Dose-response curves are carried out by perfusing concentrated drug solution (DC) at rates proportional to total coronary flow (CFT). Drug concentrations are increased by proportionate increases in the rate of DC infusion over CFT via the microprocessor keyboard. The proportional flow rates for DC:CFT is about 0.0002:1 at the low end and 0.02:1 at the high end of the dose-response curve. Dose-response curves encompassing at least two log doses are carried out by preparing two DCs with a concentration difference of 1:100. Following the first dose range of two log doses, the DC are switched, proportional pumping rate adjusted, and the dose-responsecurve continued for another two log doses. The standard dose-response curve is carried out in one-half log dose increments starting at a subthreshold dose and ending at a dose which produces near maximal response in activity. Standard reference compounds are tested over the range of 10^-9 to 10^-6 M.
Measurements are for heart rate (HR) and coronary flow (CF). Units are: HR, beats/minute (bpm) and CF, milliliters/minute (ml/min). HR is calculated from the ECG strip chart recording and CF is calculated by recording analog outputs from pumps 1 and 2. Outputs from pump #1=CFT and the output from pump #2=CF for heart B (CFB). CF for heart A (CFA) is calculated (CFT -CFB =CFA).
Using the above techniques, the effects of the compound of Examples 1, 2 and 3 are as follows indicating the compound of Example 3 is preferred to increase coronary blood flow.

adenosine A2 receptor = biological target: T1, adenosine A2 receptor (Rattus norvegicus, UniProt P30543); experiment: Adenosine Receptor Binding--A2 Receptor Affinity (RBA2), [3H]NECA displacement, rat striatal membranes; set-up: species or system rat (Sprague-Dawley; Long-Evans); conditions: 4 nM [3H]NECA, 50 nM N6-cyclopentyladenosine, 25° C., 60 min, read-out: IC50 for adenosine A2 receptor affinity (RBA-2)
T1 construct: Brains were thawed and then kept on ice while the striata were dissected out; tissue Pel-Freez (Rogers, Ark.); host or cells: rat striatum, membranes
Description: Brains from 200-500 g mixed sex Sprague-Dawley rats were purchased from Pel-Freez (Rogers, Ark.). Fresh brains from male Long-Evans hooded rats (Blue Spruce Farms, Altamont, NY) gave essentially identical results. Brains were thawed and then kept on ice while the striata were dissected out. Striata were disrupted in 10 vol of ice-cold 50 mM Tris.HCl (pH 7.7 at 25° C., pH 8.26 at 5° C.) (Tris) for 30 seconds in a Polytron PT-10 (Brinkmann) at setting 5. The suspension was centrifuged at 50,000×g for ten minutes, the supernatant discarded, the pellet resuspended in 10 vol ice-cold Tris as above, recentrifuged, resuspended at 1 g/5 ml, and stored in plastic vials at -70° C. (stable for at least six months). When needed, tissue was thawed at room temperature, disrupted in a Polytron, and kept on ice until used.
All incubations were for 60 minutes at 25° C. in 12×75 mm glass tubes containing 1 ml Tris with 5 mg original tissue weight of rat weight of rat striatal membranes, 4 nM [^3 H]-N-ethyl adenosine-5'-carboxamide ([^3 H]NECA), 50 nM N^6 -cyclopentyladenosine (to eliminate A1 receptor binding), 10 mM MgCl2, 0.1 units/ml of adenosine deaminase and 1% dimethylsulfoxide. N^6 -Cyclopentyladenosine was dissolved at 10 mM in 0.02N HCl and diluted in Tris. […]
Incubations were terminated by filtration through 2.4 cm GF/B filters under reduced pressure. […] Filters were put in scintillation vials, 8 ml of Formula 947 scintillation fluid added, and the vials left overnight, shaken, and counted in a liquid scintillation counter at 40% efficiency.
Nonspecific binding was defined as binding in the presence of 100 μM N^6 -cyclopentyladenosine, and specific binding was defined as total binding minus nonspecific binding. The IC50 was calculated by weighted nonlinear least squares curve-fitting to the mass-action equation. […]
Weighting factors were calculated under the assumption that the standard deviation was proportional to the predicted value of Y. Nonspecific binding was treated as a very large (inifinite) concentration of drug in the computer analysis.

adenosine A1 receptor = biological target: T2, adenosine A1 receptor (Rattus norvegicus, UniProt P25099); experiment: Adenosine Receptor Binding--A1 Receptor Affinity (RBA1), [3H]-CHA displacement, rat whole brain membranes; set-up: species or system rat (male Long Evans); conditions: 1.0 nM [3H]-CHA, 25° C., one hour, read-out: IC50 for adenosine A1 receptor affinity (RBA-1)
T2 construct: Whole brain minus cerebellum and brainstem from male Long Evans rats; from tissue; host or cells: rat whole brain minus cerebellum and brainstem, membranes
T2 sequence (P25099 1-326): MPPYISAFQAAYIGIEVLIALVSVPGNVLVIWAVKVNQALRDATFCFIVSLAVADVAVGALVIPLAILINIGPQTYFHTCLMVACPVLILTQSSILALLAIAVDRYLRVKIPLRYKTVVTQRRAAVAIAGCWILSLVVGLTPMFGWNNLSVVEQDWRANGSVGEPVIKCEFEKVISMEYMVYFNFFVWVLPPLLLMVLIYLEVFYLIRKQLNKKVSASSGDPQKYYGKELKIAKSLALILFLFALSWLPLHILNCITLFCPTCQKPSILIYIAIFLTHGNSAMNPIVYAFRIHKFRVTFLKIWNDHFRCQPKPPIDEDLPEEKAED
Description: Whole brain minus cerebellum and brainstem from male Long Evans rats (150-200 g) was homogenized in 30 volumes of ice-cold 0.05M Tris-HCl buffer pH 7.7 using a Brinkman Polytron PT-10, (setting number 6 for 20 seconds) and centrifuged for ten minutes at 20,000×g (Sorvall RC-2), 4° C. The supernatant was discarded, and the pellet was resuspended and centrifuged as before. The pellet was resuspended in 20 ml Tris-HCl buffer containing two International Units/ml of adenosine deaminase (Sigma type III from calf intestinal mucosa), incubated at 37° C. for 30 minutes, then subsequently at 0° C. for ten minutes. The homogenate was again centrifuged, and the final pellet was resuspended in ice-cold 0.05M Tris-HCl buffer pH 7.7 to a concentration of 20 mg/ml original wet tissue weight and used immediately.
Tissue homogenate (10 mg/ml) was incubated in 0.05M Tris-HCl buffer pH 7.7 containing 1.0 nM [^3 H]-N^6 -cyclohexyladenosine ([^3 H]-CHA) with or without test agents in triplicate for one hour at 25° C. Incubation volume was 2 ml. Unbound [^3 H]-CHA was separated by rapid filtration under reduced pressure through Whatman glass fiber (GF/B) filters. The filters were rinsed three times with 5 ml of ice cold 0.05M Tris-HCl buffer pH 7.7. The radio-labeled ligand retained on the filter was measured by liquid scintillation spectrophotometry after shaking the filters for one hour or longer on a mechanical shaker in 10 ml of Beckman Ready-Solv HP scintillation cocktail.
Nonspecific binding was defined as the binding which occurred in the presence of 1 mM theophylline. The concentration of test agent which inhibited 50% of the specific binding (IC50) was determined by nonlinear computer curve fit. The Scatchard plot was calculated by linear regression of the line obtained by plotting the amount of radioligand bound (pmoles/gram of tissue) versus [formula] […] The Hill coefficient was calculated by linear regression of the line obtained by plotting the log of the bound radioligand vs the log of the [formula] The maximal number of binding sites (Bmax) was calculated from the Scatchard plot.

[1] = read-out: coronary flow (CF), % increase
[2] = read-out: heart rate (HR), % decrease

T1 sequence (P30543 whole entry): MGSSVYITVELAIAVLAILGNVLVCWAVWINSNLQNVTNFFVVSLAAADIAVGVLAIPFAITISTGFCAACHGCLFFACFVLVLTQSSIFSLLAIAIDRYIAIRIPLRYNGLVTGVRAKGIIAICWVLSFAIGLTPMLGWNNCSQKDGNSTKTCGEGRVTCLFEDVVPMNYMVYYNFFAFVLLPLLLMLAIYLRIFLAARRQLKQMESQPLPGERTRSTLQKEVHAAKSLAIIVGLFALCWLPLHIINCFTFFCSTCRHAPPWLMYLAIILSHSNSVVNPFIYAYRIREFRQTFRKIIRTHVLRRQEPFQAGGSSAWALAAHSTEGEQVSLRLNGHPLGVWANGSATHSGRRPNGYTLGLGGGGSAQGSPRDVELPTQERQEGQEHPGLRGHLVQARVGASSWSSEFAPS

IC50 (adenosine A2 receptor) [nM] | IC50 (adenosine A1 receptor) [nM] | Compound | activation at 1 µM (rat heart; [1]) [%] | inhibition at 1 µM (rat heart; [2]) [%] | activation at 0.1 µM (rat heart; [1]) [%] | inhibition at 0.1 µM (rat heart; [2]) [%] | activation at 0.01 µM (rat heart; [1]) [%] | inhibition at 0.01 µM (rat heart; [2]) [%] | activation at 3 µM (rat heart; [1]) [%] | inhibition at 3 µM (rat heart; [2]) [%] | activation at 0.3 µM (rat heart; [1]) [%] | inhibition at 0.3 µM (rat heart; [2]) [%] | activation at 0.03 µM (rat heart; [1]) [%] | inhibition at 0.03 µM (rat heart; [2]) [%] | activation at 0.001 µM (rat heart; 1 × 10^-9 Molar, read-out: coronary flow (CF), % increase) [%] | inhibition at 0.001 µM (rat heart; 1 × 10^-9 Molar, read-out: heart rate (HR), % decrease) [%] | activation at 0.003 µM (rat heart; 3 × 10^-9 Molar, read-out: coronary flow (CF), % increase) [%] | inhibition at 0.003 µM (rat heart; 3 × 10^-9 Molar, read-out: heart rate (HR), % decrease) [%]
24 | 6 | OC[C@H]1O[C@@H](n2cnc3c(NCC4Cc5cccc6cccc4c56)ncnc32)[C@H](O)[C@@H]1O (stereo partly drawn) [Example 3, N^6-[(1,2-Dihydro-1-acenaphthylenyl)methyl]adenosine] | 62 | 65 | 58 | 36 | 41 | 2 | 67 | 68 | 67 | 44 | 49 | 8 |  |  |  | 
950 | 640 | OC[C@H]1O[C@@H](n2cnc3c(NC4Cc5cccc6cccc4c56)ncnc32)[C@H](O)[C@@H]1O (stereo partly drawn) [Example 1, N^6 -Acenaphthyladenosine] | 44 | 5 | 27 | 2 | 0 | 1 | 49 | 8 | 40 | 2 | 7 | 0 |  |  |  | 
63 | 92 | OC[C@H]1O[C@@H](n2cnc3c(NCC4=Cc5cccc6cccc4c56)ncnc32)[C@H](O)[C@@H]1O [Example 2, N^6-(1-acenaphthylenylmethyl)adenosine] | 62 | 30 |  |  | 37 | 1 |  |  | 60 | 25 | 48 | 4 | 2 | -1 | 7 | -1
